# Measured values as given in ChEMBL document CHEMBL3301472, “MMV Malaria Box HIV and cytotoxicity screening”.
# Experiments:
# Assay type in all cases: toxicity, cell-based
# [1] = MMV: MTT Cytotoxicity Assay Day 3 pi, U87-CD4-CCR5 cells, % cell death @ 5mM compound; conditions: human, u87-cd4-ccr5, 5000 µM
# [2] = MMV: MTT Cytotoxicity Assay Day 7 pi of Assay #7 (compound washed out Day 1 pi), U87-CD4-CXCR4 cells, % cell death @ 5mM compound; conditions: human, u87-cd4-cxcr4, 5000 µM
# [3] = MMV: MTT Cytotoxicity Assay Day 7 pi of Assay #11 (NO washout), U87-CD4-CXCR4 cells, % cell death @ 5mM compound; conditions: human, u87-cd4-cxcr4, 5000 µM
# [4] = MMV: MTT Cytotoxicity Assay Day 7 pi of Assay #10 (NO washout), U87-CD4-CCR5 cells, % cell death @ 5mM compound; conditions: human, u87-cd4-ccr5, 5000 µM
# [5] = MMV: MTT Cytotoxicity Assay Day 3 pi, U87-CD4-CXCR4 cells, % cell death @ 5mM compound; conditions: human, u87-cd4-cxcr4, 5000 µM
# [6] = MMV: MTT Cytotoxicity Assay Day 7 pi of Assay #6 (compound washed out Day 1 pi), U87-CD4-CCR5 cells, % cell death @ 5mM compound; conditions: human, u87-cd4-ccr5, 5000 µM
SMILES,% Cell Death [1],% Cell Death [2],% Cell Death [3],% Cell Death [4],% Cell Death [5],% Cell Death [6]
N#Cc1nc(Cc2cccc3ccccc23)oc1N1CCN(C(c2ccccc2)c2ccccc2)CC1,112,93,-30,109,101,78
Cc1ccc2nc(C)cc(Nc3cccc(C(F)(F)F)c3)c2c1.Cl,-13,-9,44,72,38,15
COc1ccc(C(O)(CCC(C)C)C(CN2CCOCC2)c2ccc(Cl)cc2)cc1.Cl (stereo not given),72,4,47,102,55,48
CCOc1ccc(CCNC(=O)c2cccs2)cc1OCC,45,-3,-9,2,30,-20
COc1cc(-c2nc(-c3ccc(Sc4ccccc4)cc3)c(-c3ccccc3)[nH]2)cc(OC)c1O,18,-13,-41,33,29,5
CC(C)c1ccc(CNCC(O)c2ccccc2)cc1.Cl (stereo not given),-53,-18,3,14,29,-1
O=C(Nc1ccc(CN2CCOCC2)cc1)c1ccc(-c2cc(Cl)ccc2Cl)o1,-2,-21,36,41,28,-8
CN(C)c1ccc(C=Cc2nc(=O)c3ccccc3o2)cc1,39,0,20,46,38,-14
CCOc1ccccc1NC(=O)CN1CCN(C(=O)c2ccco2)CC1,-66,38,36,37,-22,13
Oc1c2c(nc3cc(-c4ccccc4)nn13)CCCC2,37,-10,-22,1,6,26
CN(C)c1ccc(N=Cc2ccc(N3CCOCC3)cc2)cc1,108,97,109,135,100,92
CC(C)(C)C(=O)Nc1ccc(C(=O)Nc2cccc(-c3nc4ccccc4[nH]3)c2)cc1,17,-22,85,4,20,18
CCOc1ccc(C2N(C)c3ccccc3N2C)cc1,92,98,100,115,79,105
C[n+]1c2ccccc2nc2ccc(NCCO)cc21,-33,-30,16,49,11,29
OC1=C2C(=Nc3ccccc3SC2c2ccccc2)c2ccccc21 (stereo not given),37,24,-20,-15,20,-22
COc1cc(OC)cc(N2C(=O)N(Cc3ccc(C(C)(C)C)cc3)c3ccccc3S2(=O)=O)c1,34,-10,64,39,36,34
Cc1ccc(-c2cc3c(nn2)-c2ccccc2C3=O)cc1,46,58,96,106,57,48
CC(C)(C)c1ccc(C(=O)Nc2nc3ccccc3s2)cc1,1,-23,-30,24,12,20
COc1ccc(-c2cn3c(C(=O)Nc4ccccc4Cl)c(-c4ccccc4)c4c3n2CCCC4)cc1,-20,-5,-35,30,35,-4
CCCCCCc1cc(O)c2c3c(c(=O)oc2c1)CCC(C)C3 (stereo not given),16,16,9,26,20,16
COc1ccc(OC)c(C2C3=C(CC(C)(C)CC3=O)N(c3ccc(Cl)c(Cl)c3)C3=C2C(=O)CC(C)(C)C3)c1,9,5,3,-4,31,28
O=C(Nc1cccc(C(F)(F)F)c1)c1cc(Cl)ccc1O,95,97,95,124,70,100
O=C(NC1CCCCC1)C(c1cccs1)N(CCc1ccccc1)C(=O)c1ccco1 (stereo not given),93,61,97,90,54,90
O=C(NCC1Cc2cccc(-c3ccncc3)c2O1)c1csc2c1CCCC2 (stereo not given),4,-22,60,17,2,7
COc1cccc(Nc2nc(NCCO)c3ccccc3n2)c1.Cl,15,-16,46,3,-1,44
CNCCCNc1ccnc2cc(Cl)ccc12,108,98,100,124,100,97
O=C(CSc1ccc2nnc(-c3cccc(F)c3)n2n1)Nc1ccc2c(c1)OCO2,82,48,100,94,54,63
COc1cc(OC)cc(C(=O)Nc2ccc(-c3nc4ccccc4[nH]3)cc2)c1,47,55,116,115,63,59
CN1CCN(c2c3c(c(C#N)c4nc5ccccc5n24)CCC3)CC1,-3,-15,16,8,-10,1
CCN(CC)CCNc1ncnc2c1[nH]c1ccc(Br)cc12,-7,-18,-18,15,24,-1
